Measurements reported in patent US20150011466A1, “APJ Receptor Compounds” (priority 2012, published 2015).
Read-outs that look alike come from different tables or passages of the source. Where a SMILES comes first, the peptide text is derived from it. [ ]: non-standard residue; d: D form. The star is where a group is joined. Lithocholoyl = C[C@H](CCC(=O)*)[C@H]1CC[C@H]2[C@@H]3CC[C@@H]4C[C@H](O)CC[C@]4(C)[C@H]3CC[C@]12C; Palmitoyl = CCCCCCCCCCCCCCCC(=O)*

Legend:
[1] = molecular target: T1, Gi-coupled receptor APJ (Homo sapiens, UniProt P35414); assay: HTRF cAMP assay, inhibition of NKH477 stimulated cAMP in HEK cells stably expressing APJ (APJ-h HEK 293 cells); format: cell-based; details: for inhibition of NKH477 stimulated increase in cAMP (concentration response curves, FIGS. 1A-1E): HEK cells stably expressing APJ
T1 sequence (P35414 1-380): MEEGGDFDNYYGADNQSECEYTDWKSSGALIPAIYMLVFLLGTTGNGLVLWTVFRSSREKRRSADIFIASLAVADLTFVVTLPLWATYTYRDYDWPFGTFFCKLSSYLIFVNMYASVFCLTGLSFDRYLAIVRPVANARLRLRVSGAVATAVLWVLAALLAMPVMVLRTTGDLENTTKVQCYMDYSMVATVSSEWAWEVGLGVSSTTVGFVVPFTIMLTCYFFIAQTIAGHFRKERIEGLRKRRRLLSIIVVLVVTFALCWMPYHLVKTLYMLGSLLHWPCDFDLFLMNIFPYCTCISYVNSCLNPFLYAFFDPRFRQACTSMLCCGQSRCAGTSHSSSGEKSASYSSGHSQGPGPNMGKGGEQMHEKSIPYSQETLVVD
Source text: HTRF (homogeneous time resolved fluorescence) is a technology developed by Cisbio Bioassays based on TR-FRET (time-resolved fluorescence resonance energy transfer). Cisbio Bioassays has developed a wide selection of HTRF-based assays compatible with whole cells, thereby enabling functional assays to run under more physiological conditions. The IP-One assays are competitive immunoassays using cryptate-labeled anti-IP1 monoclonal antibody and d2-labeled IP1. IP1 is a relatively stable downstream metabolite of IP3, and accumulates in cells following Gq receptor activation.
cAMP kits based on a competitive immunoassay using cryptate-labeled anti-cAMP antibody and d2-labeled cAMP were used to assay the effects of APJ compounds of the present invention. […] Cells are treated with […] doxycycline and seeded in all white 96 well plates @ 40 k/well overnight.

[2] = Histimine (% vs. 48/40)
[3] = molecular target: T2, APJ receptor (Homo sapiens, UniProt P35414); assay: HTRF cAMP assay, inhibition of NKH477 stimulated cAMP in Human TRex cells expressing APJ upon doxycycline induction (APJ-hTREX); format: cell-based; details: for Ranking: class combining EC50 and % histamine; for percent intrinsic activity at 0.3 µM: read-out: % IA (@ 300 nM)
T2 construct: expressed in transfected cells; host or cells: Human TRex cells (doxycycline-inducible)
T2 sequence (P35414 1-380): T1 sequence (P35414 1-380)
In short: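 Cells stimulated with NKH477 and cAMP measured by HTRF competitive immunoassay (cryptate anti-cAMP antibody, d2-labeled cAMP). APJ-hTREX cells induced with […] doxycycline and seeded overnight at 40 k/well.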

[4] = system: Human TRex cells not induced, do not express the APJ receptor; assay: HTRF cAMP assay in Human TRex cells not induced (no APJ receptor); format: cell-based
Protocol: cAMP kits based on a competitive immunoassay using cryptate-labeled anti-cAMP antibody and d2-labeled cAMP were used to assay the effects of APJ compounds of the present invention. This assay measures the increase in intracellular cAMP upon Gs-coupled receptor activation as well as decrease in forskolin (or a more soluble version of forskolin—NKH477) stimulated increase in cAMP upon Gi-coupled receptor activation. […] Cells are treated with lnG/mL doxycycline and seeded in all white 96 well plates @ 40 k/well overnight.

[5] = molecular target: T3, APJ receptor (β-arrestin recruitment) (Homo sapiens, UniProt P35414); assay: β-Arrestin signaling assay (DiscoveRx PathHunter, enzyme fragment complementation); format: cell-based; details: for β-arrestin recruitment (dose dependent increase in chemiluminescence): in words; for Emax: read-out: β-arrestin Signaling Max Response
T3 sequence (P35414 1-380): T1 sequence (P35414 1-380)
Source text: Activation of the β-Arrestin signaling pathway was monitored using the commercially available DiscoveRx PathHunter® assay. This assay employs a homogenous, non-imaging assay format called Enzyme Fragment Complementation (EFC) using β-galactosidase (β-Gal) as the functional reporter. […] EA is fused to β-Arrestin and ED is fused to the GPCR of interest. When the GPCR is activated and β-Arrestin is recruited to the receptor, ED and EA complementation occurs, restoring βGal activity which is measured using chemiluminescent PathHunter® Detection Reagent.

| Compound | inhibition of NKH477 stimulated increase in cAMP (concentration response curves, FIGS. 1A-1E) [1] | Histimine (% vs. 48/40) [2] | EC50 [3] | Ranking [3] | percent intrinsic activity at 0.3 µM [3] | inhibition of NKH477 stimulated cAMP [4] | EC50 ([5]; PathHunter chemiluminescence, read-out: β-arrestin Signaling EC50) | β-arrestin recruitment (dose dependent increase in chemiluminescence) [5] | Emax [5] | EC50 ([3]; inhibition of NKH477 stimulated cAMP, APJ-hTREX cells, read-out: APJ-hTREX EC50) | EC50 [5] | EC50 [1] |
| --- | --- | --- | --- | --- | --- | --- | --- | --- | --- | --- | --- | --- |
| CCCCCCCCCCCCCCCC(=O)NCC(=O)N[C@H](C(=O)N[C@@H](Cc1ccccc1)C(=O)N[C@@H](CCCNC(=N)N)C(=O)N[C@@H](CO)C(=O)N[C@@H](CO)C(=O)N[C@@H](CCC(=O)O)C(=O)N[C@H](CCCCN)C(=O)N[C@@H](CCCNC(=N)N)C(=O)N[C@@H](CCCNC(=N)N)C(=O)N[C@@H](CO)C(=O)N[C@@H](C)C(=O)N[C@@H](CC(=O)O)C(=O)N[C@H](C(=O)N[C@@H](Cc1ccccc1)C(=O)N[C@H](C(N)=O)[C@@H](C)CC)[C@@H](C)CC)C(C)C [Compound 68] (Palmitoyl-GVFRSSE[dK]RRSADIFI-NH2) | in a dose dependent manner | 21% | 56.4 nM | ***** (EC50<100 nM and % histamine<35%) | 69% | – | – | – | – | – | – | – |
| CCCCCCCCCCCCCCCC(=O)N[C@H](C(=O)N[C@H](C(=O)N[C@@H](Cc1ccccc1)C(=O)N[C@@H](CCCNC(=N)N)C(=O)N[C@@H](CO)C(=O)N[C@@H](CCC(N)=O)C(=O)N[C@@H](CCC(=O)O)C(=O)N[C@H](CCCCN)C(=O)N[C@@H](CCCNC(=N)N)C(=O)N[C@@H](CCCNC(=N)N)C(=O)N[C@@H](CO)C(=O)N[C@@H](C)C(=O)N[C@@H](CC(=O)O)C(=O)N[C@H](C(=O)N[C@@H](Cc1ccccc1)C(=O)N[C@H](C(N)=O)[C@@H](C)CC)[C@@H](C)CC)C(C)C)[C@@H](C)O [Compound 24] (Palmitoyl-TVFRSQE[dK]RRSADIFI-NH2) | in a dose dependent manner | 22% | 42.6 nM | ***** (EC50<100 nM and % histamine<35%) | 70% | – | – | – | – | – | – | – |
| CCCCCCCCCCCCCCCC(=O)N[C@@H](CCC(N)=O)C(=O)N[C@H](C(=O)N[C@@H](Cc1ccccc1)C(=O)N[C@@H](CCCNC(=N)N)C(=O)N[C@@H](CO)C(=O)N[C@@H](CO)C(=O)N[C@@H](CCC(=O)O)C(=O)N[C@H](CCCCN)C(=O)N[C@@H](CCCNC(=N)N)C(=O)N[C@@H](CCCNC(=N)N)C(=O)N[C@@H](CO)C(=O)N[C@@H](C)C(=O)N[C@@H](CC(=O)O)C(=O)N[C@H](C(=O)N[C@@H](Cc1ccccc1)C(=O)N[C@H](C(N)=O)[C@@H](C)CC)[C@@H](C)CC)C(C)C [Compound 20] (Palmitoyl-QVFRSSE[dK]RRSADIFI-NH2) | in a dose dependent manner | 29% | 60.7 nM | ***** (EC50<100 nM and % histamine<35%) | 61% | – | – | – | – | – | – | – |
| CCCCCCCCCCCCCCCC(=O)N[C@H](C(=O)N[C@H](C(=O)N[C@@H](Cc1ccccc1)C(=O)N[C@@H](CCCNC(=N)N)C(=O)N[C@@H](CO)C(=O)N[C@@H](CO)C(=O)N[C@@H](CCC(=O)O)C(=O)N[C@H](CCCCN)C(=O)N[C@@H](CCCNC(=N)N)C(=O)N[C@@H](CCCNC(=N)N)C(=O)N[C@@H](CO)C(=O)N[C@@H](C)C(=O)N[C@@H](CC(=O)O)C(=O)N[C@H](C(=O)N[C@@H](Cc1ccccc1)C(=O)N[C@H](C(N)=O)[C@@H](C)CC)[C@@H](C)CC)C(C)C)[C@@H](C)O [Compound 1] (Palmitoyl-TVFRSSE[dK]RRSADIFI-NH2) | in a dose dependent manner | 33% | 56.7 nM | ***** (EC50<100 nM and % histamine<35%) | 81% | – | – | – | – | – | – | – |
| CSCC[C@H](NC(=O)[C@@H]1CCCN1C(=O)CNC(=O)[C@H](CCCCN)NC(=O)[C@H](Cc1c[nH]cn1)NC(=O)[C@H](CO)NC(=O)[C@H](CC(C)C)NC(=O)[C@H](CCCNC(=N)N)NC(=O)[C@@H]1CCCN1C(=O)[C@H](CCCNC(=N)N)NC(=O)[C@@H](N)CCC(N)=O)C(=O)N1CCC[C@H]1C(=O)N[C@@H](Cc1ccccc1)C(=O)O [Apelin] | – | – | – | – | – | does not inhibit | – | – | – | – | – | – |
| CCCCCCCCCCCCCCCC(=O)N[C@H](C(=O)N[C@H](C(=O)NCC(=O)N[C@@H](CCCNC(=N)N)C(=O)N[C@@H](CO)C(=O)N[C@@H](CO)C(=O)N[C@@H](CCC(=O)O)C(=O)N[C@H](CCCCN)C(=O)N[C@@H](CCCNC(=N)N)C(=O)N[C@@H](CCCNC(=N)N)C(=O)N[C@@H](CO)C(=O)N[C@@H](C)C(=O)N[C@@H](CC(=O)O)C(=O)N[C@H](C(=O)N[C@@H](Cc1ccccc1)C(=O)N[C@H](C(N)=O)[C@@H](C)CC)[C@@H](C)CC)C(C)C)[C@@H](C)O [Compound 70] (Palmitoyl-TVGRSSE[dK]RRSADIFI-NH2) | in a dose dependent manner | 29% | 52.5 nM | ***** (EC50<100 nM and % histamine<35%) | 81% | – | – | – | – | – | – | – |
| CCCCCCCCCCCCCCCC(=O)N[C@H](C(=O)N[C@H](C(=O)N[C@@H](Cc1ccccc1)C(=O)N[C@@H](CCC(N)=O)C(=O)N[C@@H](CO)C(=O)N[C@@H](CCC(=O)O)C(=O)N[C@H](CCCCN)C(=O)N[C@@H](CCCNC(=N)N)C(=O)N[C@@H](CCCNC(=N)N)C(=O)N[C@@H](CO)C(=O)N[C@@H](C)C(=O)N[C@@H](CC(=O)O)C(=O)N[C@@H](CCC(N)=O)C(=O)N[C@@H](Cc1ccccc1)C(=O)N[C@H](C(N)=O)[C@@H](C)CC)C(C)C)[C@@H](C)O [Compound 87] (Palmitoyl-TVFQSE[dK]RRSADQFI-NH2; C-terminus assumed) | – | 48% | – | *** (EC50<100 nM and % histamine>35%) | – | – | 34.4 nM | weakly engaged | 47% | 11 nM | – | – |
| CCCCCCCCCCCCCCCC(=O)N[C@H](C(=O)N[C@H](C(=O)N[C@@H](Cc1c[nH]cn1)C(=O)N[C@@H](CCCNC(=N)N)C(=O)N[C@@H](CO)C(=O)N[C@@H](CO)C(=O)N[C@@H](CCC(=O)O)C(=O)N[C@H](CCCCN)C(=O)N[C@@H](CCCNC(=N)N)C(=O)N[C@@H](CCCNC(=N)N)C(=O)N[C@@H](CO)C(=O)N[C@@H](C)C(=O)N[C@@H](CC(=O)O)C(=O)N[C@H](C(=O)N[C@@H](Cc1ccccc1)C(=O)N[C@H](C(N)=O)[C@@H](C)CC)[C@@H](C)CC)C(C)C)[C@@H](C)O [Compound 9] (Palmitoyl-TVHRSSE[dK]RRSADIFI-NH2; C-terminus assumed) | – | 36% | 79.6 nM | *** (EC50<100 nM and % histamine>35%) | 75% | – | – | weakly engaged | 22% | – | 2260 nM | 79 nM |
| CC[C@H](C)[C@H](NC(=O)[C@H](Cc1ccccc1)NC(=O)[C@@H](NC(=O)[C@H](CC(=O)O)NC(=O)[C@H](C)NC(=O)[C@H](CO)NC(=O)[C@H](CCCNC(=N)N)NC(=O)[C@H](CCCNC(=N)N)NC(=O)[C@H](CCCCN)NC(=O)[C@H](CCC(=O)O)NC(=O)[C@H](CO)NC(=O)[C@H](CO)NC(=O)[C@H](CCCNC(=N)N)NC(=O)[C@H](CC(=O)O)NC(=O)[C@@H](NC(=O)[C@@H](NC(=O)CC[C@@H](C)[C@H]1CC[C@H]2[C@@H]3CC[C@@H]4C[C@H](O)CC[C@]4(C)[C@H]3CC[C@]12C)[C@@H](C)O)C(C)C)[C@@H](C)CC)C(N)=O [Compound 82] (Lithocholoyl-TVDRSSEKRRSADIFI-NH2; N-terminus assumed) | – | – | – | – | – | – | – | weakly engaged | 20% | – | – | – |
